Molecular target: T1, human Nav1.1 (Homo sapiens, UniProt P35498)
T1 construct: host or cells: HEK293
Test: Amplification of Nav1.1-derived voltage-gated sodium current (Nav1.1 current), automated patch clamp (Test 1)
Assay type: cell-based
Conditions: HEK293 cell line stably expressing human Nav1.1; for activation at 1 µM: HEK293, Concentration for evaluation 1 μM
In short: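 HEK293 cells stably expressing human Nav1.1, restricted to cells with >500 pA current, were recorded by automated voltage-clamp patch clamp with a ramp voltage stimulus. Compounds were applied in HEPES-buffered extracellular solution with 1% DMSO. Amplification (%) = 100×(peak or AUC after/before compound)−100.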

[1] = Concentration for evaluation 10 μM
[2] = Concentration for evaluation 50 μM
[3] = Concentration for evaluation 1 μM
[4] = Concentration for evaluation 3 μM
[5] = read-out: Nav1.1 current amplification rate (%)

| Nav1.1 current amplification rate (%) [1] | Nav1.1 current amplification rate (%) [3] | Structure (SMILES) | further results |
| --- | --- | --- | --- |
| 131% |  | Cc1ccc(-c2ccc(=O)n(CC(=O)Nc3ccc4ocnc4c3)n2)s1 [Example 455] |  |
| 224% |  | COc1cc(C2=CCC(C)(C)CC2)nn(CC(=O)Nc2ccn3ccnc3c2)c1=O [Example 456] |  |
|  |  | O=C(Cn1nc(C2=CCCC2)ccc1=O)Nc1ccn2ccnc2c1 [Example 457] | Nav1.1 current amplification rate (%) [2]: 29% |
| 24% |  | O=C(Cn1nc(C2=CCCCC2)ccc1=O)Nc1ccn2ccnc2c1 [Example 458] |  |
| 118% |  | COc1cc(=O)n(CC(=O)Nc2ccn3ccnc3c2)nc1C1=CCC(C)(C)CC1 [Example 459] |  |
| 221% |  | Cc1cc(C2=CCC(C)(C)CC2)nn(CC(=O)Nc2ccn3ccnc3c2)c1=O [Example 460] |  |
| 337% |  | Cc1cc(=O)n(CC(=O)Nc2ccn3ccnc3c2)nc1C1=CCC(C)(C)CC1 [Example 461] |  |
| 124% |  | COc1cc(C2=CCC(C(F)(F)F)CC2)nn(CC(=O)Nc2ccn3ccnc3c2)c1=O (stereo not shown) [Example 462] |  |
| 218% |  | COc1cc(C2=CCC(C)CC2)nn(CC(=O)Nc2ccn3ccnc3c2)c1=O (stereo not shown) [Example 463] |  |
| 18% |  | O=C(Cn1nc(C2=CCC(F)(F)CC2)ccc1=O)Nc1ccn2ccnc2c1 [Example 464] |  |
| 186% |  | CC1(C)CC=C(c2ccc(=O)n(CC(=O)Nc3ccn4ccnc4c3)n2)C1 [Example 465] |  |
| 233% |  | COc1cc(-c2cc(Cl)cs2)nn(CC(=O)Nc2ccn3ccnc3c2)c1=O [Example 466] |  |
|  | 80% | O=C(Cn1nc(-c2cc(Cl)cs2)ccc1=O)Nc1ccn2ccnc2c1 [Example 467] |  |
|  | 275% | COc1cc(C2=CCC(C)(C)CC2)nn(CC(=O)N2CCc3c(N4CCOCC4)cccc32)c1=O [Example 468] |  |
| 522% |  | COc1cc(=O)n(CC(=O)N2CCc3c(N4CCOCC4)cccc32)nc1C1=CCC(C)(C)CC1 [Example 470] |  |
| 487% |  | COc1cc(C2=CCC(C)CC2)nn(CC(=O)N2CCc3c(N4CCOCC4)cccc32)c1=O (stereo not shown) [Example 473] |  |
| 235% |  | COc1cc(C2=CCC(C(F)(F)F)CC2)nn(CC(=O)N2CCc3c(N4CCOCC4)cccc32)c1=O (stereo not shown) [Example 474] |  |
| 633% |  | CC1(C)CC=C(c2ccc(=O)n(CC(=O)N3CCc4c(N5CCOCC5)cccc43)n2)C1 [Example 475] |  |
| 343% |  | COc1cc(=O)n(CC(=O)N2CCc3c(N4CCOCC4)cccc32)nc1C1=CCC(C(F)(F)F)CC1 (stereo not shown) [Example 476] |  |
| 398% |  | CC1CC=C(c2ccc(=O)n(CC(=O)N3CCc4c(N5CCOCC5)cccc43)n2)C1 (stereo not shown) [Example 477] |  |
|  |  | O=C(Cn1nc(C2=CCC3(CC2)CC3(F)F)ccc1=O)N1CCc2c(N3CCOCC3)cccc21 (stereo not shown) [Example 478] | Nav1.1 current amplification rate (%) [4]: 345% |
| 420% |  | COc1cc(-c2cc(Cl)cs2)nn(CC(=O)N2CCc3c(N4CCOCC4)cccc32)c1=O [Example 479] |  |

| Nav1.1 current amplification rate (%) [1] | Nav1.1 current amplification rate (%) [3] | Structure (SMILES) | further results |
| --- | --- | --- | --- |
|  | 110% | O=C(Cn1nc(C2=CCCCC2)ccc1=O)N1CCc2c(N3CCOCC3)cccc21 [Example 480] |  |
| 128% |  | O=C(Cn1nc(C2=CCCC2)ccc1=O)N1CCc2c(N3CCOCC3)cccc21 [Example 481] |  |
| 219% |  | COc1cc(C2=CCC(C(F)(F)F)CC2)nn(CC(=O)N2CCN(c3cncc(F)c3)CC2)c1=O (stereo not shown) [Example 482] |  |
| 175% |  | CC1(C)CC=C(c2ccc(=O)n(CC(=O)N3CCN(c4cncc(F)c4)CC3)n2)C1 [Example 483] |  |
| 224% |  | CC1CC=C(c2ccc(=O)n(CC(=O)N3CCN(c4cncc(F)c4)CC3)n2)C1 (stereo not shown) [Example 484] |  |
| 148% |  | COc1cc(=O)n(CC(=O)N2CCN(c3cncc(F)c3)CC2)nc1C1=CCC(C(F)(F)F)CC1 (stereo not shown) [Example 486] |  |
| 190% |  | O=C(Cn1nc(C2=CCC(C(F)(F)F)CC2)ccc1=O)N1CCN(c2cncc(F)c2)CC1 (stereo not shown) [Example 487] |  |
| 376% |  | COc1cc(C2=CCC(C)CC2)nn(CC(=O)N2CCN(c3cncc(F)c3)CC2)c1=O (stereo not shown) [Example 488] |  |
| 29% |  | O=C(Cn1nc(C2=CCC(F)(F)CC2)ccc1=O)N1CCN(c2cncc(F)c2)CC1 [Example 489] |  |
| 469% |  | COc1cc(=O)n(CC(=O)N2CCN(c3cncc(F)c3)CC2)nc1C1=CCC(C)(C)CC1 [Example 490] |  |
|  |  | CC1CCN(c2cnc3cnn(CC(=O)Nc4ccn5ncnc5c4)c3n2)CC1 [Example 572, 2-[6-(4-Methylpiperidin-1-yl)-1H-pyrazolo[3,4-b]pyrazin-1-yl]-N-([1,2,4]triazolo[1,5-a]pyridin-7-yl)acetamide] | activation at 1 µM [5]: 49% |
|  |  | CC(C)CN(C)c1cnc2cnn(CC(=O)Nc3ccn4ncnc4c3)c2n1 [Example 573, 2-{6-[Methyl(2-methylpropyl)amino]-1H-pyrazolo[3,4-b]pyrazin-1-yl}-N-([1,2,4]triazolo[1,5-a]pyridin-7-yl) acetamide] | activation at 1 µM [5]: 44% |
|  |  | Cc1ccc(-c2cnc3cnn(CC(=O)Nc4ccn5ncnc5c4)c3n2)c(F)c1 [Example 574, 2-[6-(2-Fluoro-4-methylphenyl)-1H-pyrazolo[3,4-b]pyrazin-1-yl]-N-([1,2,4]triazolo[1,5-a]pyridin-7-yl)acetamide] | activation at 1 µM [5]: 303% |
|  |  | Cc1cnc(-c2cnc3cnn(CC(=O)Nc4ccn5ncnc5c4)c3n2)s1 [Example 575, 2-[6-(5-Methyl-1,3-thiazol-2-yl)-1H-pyrazolo[3,4-b]pyrazin-1-yl]-N-([1,2,4]triazolo[1,5-a]pyridin-7-yl)acetamide] | activation at 1 µM [5]: 84% |
|  |  | O=C(Cn1ncc2ncc(C3CCC3)nc21)Nc1ccn2ncnc2c1 [Example 576, 2-(6-Cyclobutyl-1H-pyrazolo[3,4-b]pyrazin-1-yl)-N-([1,2,4]triazolo[1,5-a]pyridin-7-yl)acetamide] | activation at 3 µM (HEK293, Concentration for evaluation 3 μM, read-out: Nav1.1 current amplification rate (%)): 14% |
| 25% |  | CCN(C)c1cnc2cnn(CC(=O)Nc3ccn4ncnc4c3)c2n1 [Example 623] |  |
|  | 61% | CN(CC1CC(F)(F)C1)c1cnc2cnn(CC(=O)Nc3ccn4ncnc4c3)c2n1 [Example 624] |  |
|  | 255% | CN(CC1CCC1)c1cnc2cnn(CC(=O)Nc3ccn4ncnc4c3)c2n1 [Example 625] |  |
|  | 200% | CN(CC1CCCC1)c1cnc2cnn(CC(=O)Nc3ccn4ncnc4c3)c2n1 [Example 626] |  |
|  |  | CN(CC(F)F)c1cnc2cnn(CC(=O)Nc3ccn4ncnc4c3)c2n1 [Example 627] | Nav1.1 current amplification rate (%) [2]: 60% |
|  | 14% | CN(c1cnc2cnn(CC(=O)Nc3ccn4ncnc4c3)c2n1)C1CCC(F)(F)C1 (stereo not shown) [Example 628] |  |
|  |  | COCC1(N(C)c2cnc3cnn(CC(=O)Nc4ccn5ncnc5c4)c3n2)CC1 [Example 629] | Nav1.1 current amplification rate (%) [4]: 15% |

| Nav1.1 current amplification rate (%) [1] | Nav1.1 current amplification rate (%) [3] | Structure (SMILES) | further results |
| --- | --- | --- | --- |
|  | 49% | CN(c1cnc2cnn(CC(=O)Nc3ccn4ncnc4c3)c2n1)C1CC1(C)C (stereo not shown) [Example 631] |  |
|  | 164% | CN(c1ncc2cnn(CC(=O)Nc3ccn4ncnc4c3)c2n1)C1CC(C)(C)C1 [Example 632] |  |
|  | 15% | CC(C1CC1)N(C)c1cnc2cnn(CC(=O)Nc3ccn4ncnc4c3)c2n1 (stereo not shown) [Example 633] |  |
|  | 13% | CC(C1CCC1)N(C)c1cnc2cnn(CC(=O)Nc3ccn4ncnc4c3)c2n1 (stereo not shown) [Example 634] |  |
|  | 76% | CC1CC(N(C)c2cnc3cnn(CC(=O)Nc4ccn5ncnc5c4)c3n2)C1 (stereo not shown) [Example 635] |  |
| 58% |  | CC1CC2(C1)CN(c1cnc3cnn(CC(=O)Nc4ccn5ncnc5c4)c3n1)C2 [Example 638] |  |
|  | 100% | CN(CC1(C)CC1)c1cnc2cnn(CC(=O)Nc3ccn4ncnc4c3)c2n1 [Example 639] |  |
|  | 38% | CN(CC1(F)CC1)c1cnc2cnn(CC(=O)Nc3ccn4ncnc4c3)c2n1 [Example 640] |  |
|  | 361% | CC1CC=C(c2cnc3cnn(CC(=O)Nc4ccc5cncnc5c4)c3n2)CC1 (stereo not shown) [Example 641] |  |
|  | 252% | CC1CCN(c2cnc3cnn(CC(=O)Nc4ccc5cncnc5c4)c3n2)CC1 [Example 642] |  |
|  | 165% | CN(CCC1CC1)c1cnc2cnn(CC(=O)Nc3ccc4cncnc4c3)c2n1 [Example 647] |  |
|  | 91% | CC1(C)CC=C(c2cnc3cnn(CC(=O)Nc4ccc5ncnn5c4)c3n2)CC1 [Example 649] |  |
|  | 26% | CCC1CC=C(c2cnc3cnn(CC(=O)Nc4ccc5ncnn5c4)c3n2)CC1 (stereo not shown) [Example 650] |  |
|  | 173% | CC1CC=C(c2cnc3cnn(CC(=O)Nc4ccc5ncnn5c4)c3n2)CC1 (stereo not shown) [Example 653] |  |
|  | 23% | CC1(C)CCN(c2cnc3cnn(CC(=O)Nc4ccc5ncnn5c4)c3n2)CC1 [Example 654] |  |
|  | 70% | O=C(Cn1ncc2ncc(C3=CCC4(CC3)CC4)nc21)Nc1ccc2ncnn2c1 [Example 656] |  |
|  | 33% | CC1CCN(c2cnc3cnn(CC(=O)Nc4ccc5ncnn5c4)c3n2)CC1(F)F (stereo not shown) [Example 658] |  |
|  | 25% | O=C(Cn1ncc2ncc(N3CCC4(CC4)C(F)(F)C3)nc21)Nc1ccc2ncnn2c1 [Example 659] |  |
|  | 64% | O=C(Cn1ncc2ncc(C3=CCC4(CC3)CC4(F)F)nc21)Nc1ccc2ncnn2c1 (stereo not shown) [Example 660] |  |
|  | 12% | CC(C)CN(C)c1cnc2cnn(CC(=O)Nc3ccc4ncnn4c3)c2n1 [Example 661] |  |
